Experimental data: patent US8609608B2, “Antimicrobial peptides” (C3 Jian, Inc., priority 2007, dated 2013)
Where no end group is shown, it is not given here.

The substances below were run on clinical isolates of S. mutans (assay: not given). Conditions: not given.
Assay type: cell-based, Streptococcus mutans
Experimental: S. mutans clinical isolates UA140 (32), UA159 (1), T8 (33), ATCC 25175, GS5 (Kuramitsu and Ingersoll (1977) Infect Immun., 17: 330-337), and all gram-positive strains listed below (see Table 9) were grown under anaerobic conditions in brain heart infusion or Todd-Hewitt (TH) broth (Difco) overnight at 37° C. prior to use (Eckert et al. (2006) Antimicrob. Agents Chemother. 50: 3651-3657). Veillonella atypica PK1910 was grown in Veillonella medium (Egland et al. (2004) Proc. Natl. Acad. Sci., USA, 101: 16917-16922). All strains were grown in an anaerobic atmosphere of 80% N2, 10% CO2, and 10% H2.
Antibacterial growth inhibition assays were performed using sterile 96-well plates in a final volume of 100 μl, TH or Veillonella medium as described previously (Qi et al. (2005) FEMS Microbial Lett. 251: 321-326). Briefly, bacterial cells were grown overnight to an optical density at 600 nm of 0.75 to 0.8 (corresponding to 1×10^8 CFU/ml) and then diluted to 1×10^5 CFU/ml in broth and aliquoted onto plates. An appropriate volume of peptide stock solution (5 to 20 mg/ml, in water or methanol, depending on solubility) was then added to the first column of the plate to give 500 μg/ml or 512 μg/ml, followed by serial 1:2 dilutions across the plate to give wells containing peptides ranging from 500 to 1.95 μg/ml or 512 to 2 μg/ml. Methanol alone was also added to control for the effects of the solvent. The plates were then incubated at 37° C. under anaerobic conditions for 16 to 20 h without shaking, and the MIC was determined as the concentration of peptide present in the last clear well after visual inspection. Up to 5% (vol/vol) methanol was found not to be antimicrobial (data not shown). MICs were determined in triplicate for all bacteria.

Substance | activity against S. mutans by MIC, in words
FKTFLKWLHRF-NH2 [Peptide B-37, FKTFLKWLHRF*] | active but to a lesser degree than B-33 or B-34
LKQFVKFIHRF-NH2 [Peptide B-57, LKQFVKFIHRF*] | active but to a lesser degree than B-33 or B-34
LYHFLHWFQRF-NH2 [Peptide B-50, LYHFLHWFQRF*] | weakly active
FKTFLQWLHRF-NH2 [Peptide B-53, FKTFLQWLHRF*] | active but to a lesser degree than B-33 or B-34
AQAAHQAAHAAHQF-NH2 [α-4, AQAAHQAAHAAHQF*] | inactive
FHYFWHWFHRF-NH2 [Peptide B-49, FHYFWHWFHRF*] | weakly active
VKQLLKIFNRF-NH2 [Peptide B-58, VKQLLKIFNRF*] | active but to a lesser degree than B-33 or B-34
IKTLLHFFQRF-NH2 [Peptide B-54, IKTLLHFFQRF*] | active but to a lesser degree than B-33 or B-34
KFVKLILAY-NH2 [Peptide S6L1-5, KFVKLI LAY*] | moderate activity
AQAAKQAAKAAKQF-NH2 [α-8, AQAAKQAAKAAKQF*] | inactive
LKQFVHFIHRF-NH2 [Peptide B-41, LKQFVHFIHRF*] | active but to a lesser degree than B-33 or B-34

Same assay, conditions: Killing Peptide Library #7

Substance | MIC S. mutans [µg/mL]
LKQKLKILF-NH2 [Peptide S6L1-2, LKQKLK1LF*] | 125

Same assay, conditions: MIC range or value from all S. mutans isolates tested; binary, alpha-helix and RW libraries

Substance | MIC [µg/mL]
AQAAKQAAKAAKQF-NH2 [α-8, AQAAKQAAKAAKQF*] | >125

Same assay, conditions: clinical isolates of

Substance | MIC [µg/mL] | MIC (fusion library peptides) [µg/mL] | MIC S. mutans [µg/mL]
RRWKRRK [Peptide 4C-2, RRWKRRK] | 500 |  | 
RRRKWWK [Peptide 4C-1, RRRKWWK] | 250 |  | 
RRRFWWR [Peptide 2C-1, RRRFWWR] | 31.25 to 125 |  | 
FKTFLKWLHRF-NH2 [Peptide B-37, FKTFLKWLHRF*] | 24 |  | 
YLFQTWQHLFR-OH [Peptide B-51, YLFQTWQHLFR] | >125 |  | 
IKQLLHFFQRFGGGRWRRLLKKLHHLLH-NH2 [FBα-13, IKQLLHFFQRF-GGG-RWRRLLKKLHHLLH*] |  | 16 | 
LKQFVKFIHRF-NH2 [Peptide B-57, LKQFVKFIHRF*] | 24 |  | 
FKKFWKWFRRFGGGRWRRLLKKLHHLLH-NH2 [FBα-12, FKKFWKWFRRF-GGG-RWRRLLKKLHHLLH*] |  | 16 | 
LYHFLHWFQRF-NH2 [Peptide B-50, LYHFLHWFQRF*] | 125 |  | 
KLVEQLKEIFR-OH [Peptide B-43, KLVEQLKEIFR] | >250 |  | 
RVLNQVKQILK [Peptide B-60, RVLNQVKQILK] | >125 |  | 
KLAQKVKRVLR [Peptide B-63, KLAQKVKRVLR] | >125 |  | 
RILKELKNLFK-OH [Peptide B-40, RILKELKNLFK] | >250 |  | 
KLLQTFKQIFR-OH [Peptide B-39, KLLQTFKQIFR] | >250 |  | 
FKTFLQWLHRF-NH2 [Peptide B-53, FKTFLQWLHRF*] | 16 to 64 |  | 
KLLQTFNQIFR-OH [Peptide B-55, KLLQTFNQIFR] | >125 |  | 
AQAAHQAAHAAHQF-NH2 [α-4, AQAAHQAAHAAHQF*] | >125 |  | 
KLKKLLKRWRRWWR-OH [α-10, KLKKLLKRWRRWWR] | 8 |  | 
KLKKLLKHLHHLLH-NH2 [α-12, KLKKLLKHLHHLLH*] | 8 |  | 

Substance | MIC [µg/mL] | MIC (fusion library peptides) [µg/mL] | MIC S. mutans [µg/mL]
RRRWWWR [Peptide 1C-3, RRRWWWR] | 32 |  | 
RRWWRRW [Peptide 1C-2, RRWWRRW] | 16 |  | 
RFRHFQERY-NH2 [Peptide S6L1-8, RFRHFQERY*] |  |  | 64
KLVQQLKNIFR-OH [Peptide B-59, KLVQQLKNIFR] | >125 |  | 
FHYFWHWFHRF-NH2 [Peptide B-49, FHYFWHWFHRF*] | 125 |  | 
VKQLLKIFNRF-NH2 [Peptide B-58, VKQLLKIFNRF*] | 32 to 62.5 |  | 
RWRWRWK [Peptide 3C-4, RWRWRWK] | 32 |  | 
RWRWRWR [Peptide 1C-4, RWRWRWR] | 32 |  | 
KLKKLLKKLKKLLK [α-5, KLKKLLKKLKKLLK] | 8 |  | 
IKTLLHFFQRF-NH2 [Peptide B-54, IKTLLHFFQRF*] | 32 to 62.5 |  | 
KLFKRWKHLFR-OH [Peptide B-35, KLFKRWKHLFR] | 31.25 to 125 |  | 
LKQLKAGIY-NH2 [Peptide S6L1-3, LKQLKAGIY*] |  |  | >500
LQLLKQLLKLLKQF-NH2 [α-7, LQLLKQLLKLLKQF*] | 8 |  | 
VKNLAELVHRF-NH2 [Peptide B-45, VKNLAELVHRF*] | >250 |  | 
RLLKRFKHLFK-OH [Peptide B-36, RLLKRFKHLFK] | 31.25 to 125 |  | 
IKVFAKQKY-NH2 [Peptide S6L1-7, IKVFAKQKY*] |  |  | >500
KLAENVKEILR-OH [Peptide B-47, KLAENVKEILR] | >250 |  | 
AKRLLKVLKRF-NH2 [Peptide B-62, AKRLLKVLKRF*] | 16 to 32 |  | 
KFVKLILAY-NH2 [Peptide S6L1-5, KFVKLI LAY*] |  |  | 32

Substance | MIC [µg/mL] | MIC (fusion library peptides) [µg/mL] | MIC S. mutans [µg/mL]
RALHEAKEALK-OH [Peptide B-48, RALHEAKEALK] | >250 |  | 
YLLTEFQHLFK-OH [Peptide B-52, YLLTEFQHLFK] | >125 |  | 
VKKLAKLVRRF-NH2 [Peptide B-61, VKKLAKLVRRF*] | 16 to 32 |  | 
VGKCVKLLY-NH2 [Peptide S6L1-4, VGKCVKLLY*] |  |  | 125
RVLQEIKQILK-OH [Peptide B-44, RVLQEIKQILK] | >250 |  | 
RRWWRRK [Peptide 3C-2, RRWWRRK] | 125 |  | 
RRRRWWW [Peptide 1C-1, RRRRWWW] | 16 |  | 
KLVKLVFLY-NH2 [Peptide S6L1-6, KLVKLVFLY*] |  |  | 125
RRRRWWK [Peptide 3C-1, RRRRWWK] | 125 |  | 
RRRWWWK [Peptide 3C-3, RRRWWWK] | 31.25 to 125 |  | 
ATHLLHALQRF-NH2 [Peptide B-46, ATHLLHALQRF*] | >250 |  | 
RWRRWWRHFHHFFH-NH2 [α-9, RWRRWWRHFHHFFH*] | 8 |  | 
VKTLLHIFQRF-NH2 [Peptide B-42, VKTLLHIFQRF*] | 31.25 to 125 |  | 
RWRKRWK [Peptide 4C-4, RWRKRWK] | 125 to 500 |  | 
RRWWRRF-NH2 [Peptide 2C-2, RRWWRRF*] | 12 to 24 |  | 
RRRKWWK [Peptide 4C-3, RRRKWWK] | 125 |  | 
LKQFVHFIHRF-NH2 [Peptide B-41, LKQFVHFIHRF*] | 32 |  | 
RALKRIKHVLK [Peptide B-64, RALKRIKHVLK] | >125 |  | 

These substances were tested on P. aeruginosa (assay: MIC against P. aeruginosa). Conditions: not given.
Assay type: cell-based, Pseudomonas aeruginosa

Substance | MIC P. aeruginosa [µg/mL]
FHIKFRVHLKVRFHF [Peptide S3L8-6, FHIKFRVHLKVRFHF] | >125
LHIHAHFHVHIHLHF [Peptide S3L8-8, LHIHAHFHVHIHLHF] | >125
FKAHIRFKLRVKFHF [Peptide S3L8-10, FKAHIRFKLRVKFHF] | >125
RFRHFQERY-NH2 [Peptide S6L1-8, RFRHFQERY*] | >500
LKQLKAGIY-NH2 [Peptide S6L1-3, LKQLKAGIY*] | 250
IKVFAKQKY-NH2 [Peptide S6L1-7, IKVFAKQKY*] | >500
KFVKLILAY-NH2 [Peptide S6L1-5, KFVKLI LAY*] | 92
VGKCVKLLY-NH2 [Peptide S6L1-4, VGKCVKLLY*] | 250
KLVKLVFLY-NH2 [Peptide S6L1-6, KLVKLVFLY*] | >500

Same assay, conditions: Killing Peptide Library #7

Substance | MIC P. aeruginosa [µg/mL]
LKQKLKILF-NH2 [Peptide S6L1-2, LKQKLK1LF*] | >500

Each substance was assayed on S. aureus (assay: not given). Conditions: not given.

Substance | MIC S. aureus [µg/mL]
FHIKFRVHLKVRFHF [Peptide S3L8-6, FHIKFRVHLKVRFHF] | >125
LHIHAHFHVHIHLHF [Peptide S3L8-8, LHIHAHFHVHIHLHF] | >125
FKAHIRFKLRVKFHF [Peptide S3L8-10, FKAHIRFKLRVKFHF] | >125

Same assay, conditions: Killing Peptide Library #7

Substance | MIC S. aureus [µg/mL]
RFRHFQERY-NH2 [Peptide S6L1-8, RFRHFQERY*] | 125
LKQKLKILF-NH2 [Peptide S6L1-2, LKQKLK1LF*] | >500
LKQLKAGIY-NH2 [Peptide S6L1-3, LKQLKAGIY*] | >500
IKVFAKQKY-NH2 [Peptide S6L1-7, IKVFAKQKY*] | >500
KFVKLILAY-NH2 [Peptide S6L1-5, KFVKLI LAY*] | >500
VGKCVKLLY-NH2 [Peptide S6L1-4, VGKCVKLLY*] | 500
KLVKLVFLY-NH2 [Peptide S6L1-6, KLVKLVFLY*] | >500

The substances below were run on E. faecalis (assay: not given). Conditions: not given.

Substance | MIC E. faecalis [µg/mL]
FHIKFRVHLKVRFHF [Peptide S3L8-6, FHIKFRVHLKVRFHF] | >125
LHIHAHFHVHIHLHF [Peptide S3L8-8, LHIHAHFHVHIHLHF] | >125
FKAHIRFKLRVKFHF [Peptide S3L8-10, FKAHIRFKLRVKFHF] | >125

What follows are substances tested on L. casei (assay: not given). Conditions: not given.

Substance | MIC L. casei [µg/mL]
FHIKFRVHLKVRFHF [Peptide S3L8-6, FHIKFRVHLKVRFHF] | 8
LHIHAHFHVHIHLHF [Peptide S3L8-8, LHIHAHFHVHIHLHF] | >62.5
FKAHIRFKLRVKFHF [Peptide S3L8-10, FKAHIRFKLRVKFHF] | 8
